Assay [1] concerns the target PEG-3 (UniProt Q6IN02). In words: inhibition of PEG-3 promoter-driven reporter – cell-based, HeLa, luciferase, CREF/GAPDH counter-screen panel, dose response (AID 624167). The conditions noted are these: HeLa PEG-Prom luciferase reporter, overnight, CREF/GAPDH counter-screens, mean of runs. (The purpose of a counterscreen is to sort out artefacts and off-target activity.)

The test system of assay [2] is PEG-3. Described as above. The conditions noted are these: HeLa PEG-Prom luciferase reporter, overnight, CREF/GAPDH counter-screens. (In a reporter assay the amount or activity of a reporter protein is the signal.)
Where [3] appears, read: run 1, dose range 1, individual replicate IC50 per panel.
The mark [4] stands for this setting: run 2, dose range 1, individual replicate IC50 per panel.

39 compounds from PubChem BioAssay AID624167 (Sanford-Burnham Center for Chemical Genomics, 2012) can be followed below.

SMILES strings stand for the structures. The source made the active and inactive calls.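 How the source made its calls: active means mean IC50 for reducing PEG3 promoter reporter signal at or below a set limit, with IC50 above the limit in both counter screens; inactive means the rest, including counter screen hits.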 Bounds are passed on as bounds.

Chain of PEG-3 (UniProt Q6IN02) (Q6IN02 whole entry, looked up): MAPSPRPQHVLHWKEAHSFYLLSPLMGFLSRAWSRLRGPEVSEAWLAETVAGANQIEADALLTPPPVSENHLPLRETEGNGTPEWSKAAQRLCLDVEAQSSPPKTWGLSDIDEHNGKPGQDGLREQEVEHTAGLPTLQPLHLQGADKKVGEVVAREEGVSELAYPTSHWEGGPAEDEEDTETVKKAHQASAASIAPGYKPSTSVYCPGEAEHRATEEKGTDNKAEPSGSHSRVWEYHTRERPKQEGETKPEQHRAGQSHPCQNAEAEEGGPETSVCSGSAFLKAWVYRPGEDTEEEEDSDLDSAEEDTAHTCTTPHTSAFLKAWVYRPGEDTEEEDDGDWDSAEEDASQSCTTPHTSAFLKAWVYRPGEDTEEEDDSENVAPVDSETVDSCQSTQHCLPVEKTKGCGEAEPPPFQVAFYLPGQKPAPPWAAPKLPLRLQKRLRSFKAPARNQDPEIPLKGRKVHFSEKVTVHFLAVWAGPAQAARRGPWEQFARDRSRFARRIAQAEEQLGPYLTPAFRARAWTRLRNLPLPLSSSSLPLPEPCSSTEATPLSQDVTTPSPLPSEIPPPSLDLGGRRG

`COc1ccc2sc3cccc(NCCN(C)C)c3c(=O)c2c1`: the IC50 entry at PEG-3 [1] is “inactive”. For the same compound, the IC50 was 21.6 µM in the assay with PEG-3 [2] (setting [3]) and greater than 100 µM in the assay with PEG-3 [2] (setting [4]).
As to `CC(=O)c1ccc(Nc2nc(C(N)Cc3ccc(Cl)cc3)cs2)cc1` (configuration not stated), the IC50 entry at PEG-3 [1] was “inactive”. Further, the IC50 was found to be 25.7 µM in the assay on PEG-3 [2] (setting [3]) and 15.1 µM in the assay with PEG-3 [2] (setting [4]).
The matching figures for `CCN1CCN(Cc2ccc(NC(=O)c3cc(NC(=O)c4ccno4)cc(OC)c3)cc2C(F)(F)F)CC1`: “inactive”, 40.6 µM and 45.3 µM.
The matching figures for `CCOC(=O)c1c(NC(=O)COc2ccccc2F)sc2c1CC(C)(C)NC2(C)C`: “inactive”, 17.6 µM and 35 µM.
Consider `CCOc1cc(/C=N/N=C(N)N)ccc1OCc1ccc(Cl)cc1`, for which the results for the IC50 on PEG-3 [1], in the assay with PEG-3 [2] (setting [3]) and in the assay with PEG-3 [2] (setting [4]) were 13 µM, 16.9 µM and 9.05 µM, respectively.
For `CN(C)CCNc1ccc2ncn3c4ccc(O)cc4c(=O)c1c23`, the IC50 result at PEG-3 [1] was “inactive”. Besides, the IC50 was 54 µM in the assay with PEG-3 [2] (setting [3]) and less than 0.2 µM in the assay with PEG-3 [2] (setting [4]).
On to `CCn1c(C)cc(C(=O)COC(=O)c2ccccc2[N+](=O)[O-])c1C`, for which the figures for the IC50 on PEG-3 [1], in the assay with PEG-3 [2] (setting [3]) and with PEG-3 [2] (setting [4]) were 18.8 µM, 35.8 µM and 1.77 µM, respectively.
For the compound `Cc1[nH]c2ccc(OC(F)(F)F)cc2c1CCNCc1cccc([N+](=O)[O-])c1`, on PEG-3 [1], the IC50 result was “inactive”. The half-maximal inhibitory concentration (IC50) is 25.1 µM in the assay on PEG-3 [2] (setting [3]) and greater than 100 µM with PEG-3 [2] (setting [4]).
Regarding `CCCOC(=O)c1cccc(Nc2nc(-c3cccnc3)nc3ccccc23)c1`, the concentration for half-maximal inhibition (IC50) at PEG-3 [1] is 12.3 µM; in the assay with PEG-3 [2] (setting [3]), 12.6 µM; in the assay on PEG-3 [2] (setting [4]) it was 11.9 µM.
The matching figures for `Cc1cc(C=C2C(=O)c3ccccc3C2=O)c(C)n1-c1ccccc1`: “inactive”, 39.6 µM and greater than 100 µM.
The matching figures for `Cc1cc(C)c2ccc(N)nc2c1O`: 15.3 µM, 7.69 µM and 22.9 µM.
The matching figures for `COc1ccc(N(Cc2cc3cc(OC)ccc3[nH]c2=O)S(=O)(=O)c2ccc(NC(C)=O)cc2)cc1`: 14.4 µM, 17.8 µM and 11 µM.
`CCCCCCCn1c(=N)n(CC(O)c2ccco2)c2ccccc21` (configuration not stated): the IC50 entry at PEG-3 [1] was “inactive”. Further, the IC50 in the assay on PEG-3 [2] (setting [3]) came out at 22 µM; in the assay with PEG-3 [2] (setting [4]) it was 22.2 µM.
`Cc1ccc(F)cc1-c1cc2nc(NCCCN(C)C)n(C)c(=O)c2s1`: the IC50 result on PEG-3 [1] was “inactive”. Moreover, the half-inhibitory concentration (IC50) in the assay with PEG-3 [2] (setting [3]) is 30.9 µM; in the assay on PEG-3 [2] (setting [4]), 59.5 µM.
The corresponding values for `COc1nc(N)c(C#N)c(-c2ccc(N(C)CCC#N)cc2)c1C#N` are “inactive”, 6.32 µM and 35.8 µM.
The matching figures for `Cn1c(=O)c(C(=O)CCl)c(N)n(Cc2ccccc2)c1=O`: “inactive”, 28.6 µM and 13.2 µM.
The matching figures for `CCOc1ccc2[nH]c3c(NCCc4ccc(OC)c(OC)c4)ncnc3c2c1`: “inactive”, 46.3 µM and greater than 100 µM.
For the compound `O=C(/C=C/c1cc(Br)ccc1O)c1ccco1`, the IC50 on PEG-3 [1] was 12.3 µM; in the assay on PEG-3 [2] (setting [3]), 16.1 µM; in the assay with PEG-3 [2] (setting [4]), 8.44 µM.
The matching figures for `COc1cccc(/C=C2/Sc3ccc(C(=O)NCCCN4CCCC4)cc3NC2=O)c1`: 17.1 µM, 21.4 µM and 12.8 µM.
With `C[C@@]12C(=O)Nc3cc(Cl)ccc3C(=O)N1[C@H]1c3cc(Cl)ccc3OC[C@@H]1[C@@H]2c1ccccc1`, the IC50 at PEG-3 [1] is 11.5 µM; in the assay with PEG-3 [2] (setting [3]), 16.3 µM; in the assay with PEG-3 [2] (setting [4]), 6.77 µM.
For the compound `COc1ccc(CN(C)C(=O)c2cc(-c3ccccc3)nc3ccc(C)cc23)c(OC)c1OC`, the IC50 result at PEG-3 [1] was “inactive”. Also, the IC50 came out at 32.8 µM in the assay on PEG-3 [2] (setting [3]) and 23.7 µM in the assay with PEG-3 [2] (setting [4]).
The matching figures for `O=[N+]([O-])c1ccc(NC2CCN(Cc3ccccc3)CC2)c2ccncc12`: “inactive”, 23.9 µM and 21.7 µM.
The corresponding values for `Cc1ccccc1CN1Cc2cnnn2-c2ccccc2C1C#N` (configuration not stated) are 13.9 µM, 15.6 µM and 12.1 µM.
With `Cc1ccc(-c2cc(C(=O)Nc3nccs3)c3ccccc3n2)c(C)c1`, the IC50 entry on PEG-3 [1] is “inactive”. Moreover, the IC50 is 32.1 µM in the assay on PEG-3 [2] (setting [3]) and greater than 100 µM in the assay with PEG-3 [2] (setting [4]).
Take `O=C(c1ccoc1)N1CCN(c2cc(-c3ccccc3)nc3cc(-c4ccccc4)nn23)CC1`: the half-maximal inhibitory concentration (IC50) is 11.5 µM on PEG-3 [1], 13.3 µM in the assay on PEG-3 [2] (setting [3]) and 9.7 µM in the assay with PEG-3 [2] (setting [4]).
`COc1ccc(C(O)(CCC(C)C)C(CN2CCOCC2)c2ccccc2)cc1` (configuration not stated): at PEG-3 [1], the IC50 result is “inactive”. Besides, the IC50 in the assay with PEG-3 [2] (setting [3]) was determined as 30.5 µM; in the assay on PEG-3 [2] (setting [4]), 30.2 µM.
The matching figures for `N/C(=N\OC(=O)c1ccccc1)C(C(=O)NOC(=O)c1ccccc1)C1CCCCC1` (configuration not stated): “inactive”, 24.5 µM and greater than 100 µM.
The matching figures for `CCN(CC)CCSc1nnc2c3cc(C)ccc3n(Cc3ccccc3)c2n1`: “inactive”, 30.6 µM and 93.6 µM.
Turning to `CCn1cc(C(=O)NCCC(C)C)c(=O)c2cc(F)c(N3CCN(C(=O)c4ccco4)CC3)cc21`, the IC50 entry at PEG-3 [1] is “inactive”. Moreover, the IC50 in the assay with PEG-3 [2] (setting [3]) is 37.8 µM; with PEG-3 [2] (setting [4]), greater than 100 µM.
Take `COc1cc(NC(=O)c2c(F)c(F)c(F)c(F)c2F)c(OC)cc1Cl`: the IC50 was 19.8 µM at PEG-3 [1], 23.7 µM in the assay on PEG-3 [2] (setting [3]) and 15.9 µM in the assay on PEG-3 [2] (setting [4]).
The matching figures for `Cc1ccc(Cn2c(=N)n(CC(=O)c3ccccc3)c3ccccc32)cc1`: 16.5 µM, 15.4 µM and 17.6 µM.
The matching figures for `Cc1ccc(S(=O)(=O)N2CCCCC2)cc1C(=O)N(C)CC(=O)Nc1ccc(Cl)c(C(F)(F)F)c1`: “inactive”, 45.1 µM and 42.7 µM.
The corresponding values for `O=C(O)CN1C(=O)/C(=C\c2ccccc2OCc2ccc(Cl)cc2Cl)SC1=S` are 16.9 µM, 16.6 µM and 17.2 µM.
Take `CCN1CCN(c2ccc(S(=O)(=O)N3CCOCC3)cc2NC(=O)/C=C/c2ccc([N+](=O)[O-])cc2)CC1`: the IC50 entry on PEG-3 [1] was “inactive”. The half-maximal inhibitory concentration (IC50) in the assay with PEG-3 [2] (setting [3]) was found to be 19 µM; in the assay on PEG-3 [2] (setting [4]), 78.3 µM.
The corresponding values for `c1cncc(-c2nc(NCC3COc4ccccc4O3)c3ccccc3n2)c1` (configuration not stated) are “inactive”, 20.1 µM and 38.6 µM.
The corresponding values for `c1ccc(CCNc2nc(-c3ccncc3)nc3ccccc23)cc1` are 13.1 µM, 17.7 µM and 8.58 µM.
In the case of `Cc1ccc(N(Cc2cc(=O)[nH]c3ccccc23)C(=O)CCl)c(C)c1`, at PEG-3 [1], the IC50 result was “inactive”. The values for the half-maximal inhibitory concentration (IC50) with PEG-3 [2] (setting [3]) and with PEG-3 [2] (setting [4]) were 22.9 µM and 29.4 µM, respectively.
As to `COc1ccccc1NC(=S)NC1CCCCCCCCCCC1`, the IC50 result on PEG-3 [1] is “inactive”. For the same compound, the half-maximal inhibitory concentration (IC50) came out at 31.2 µM in the assay on PEG-3 [2] (setting [3]) and 42.3 µM with PEG-3 [2] (setting [4]).
The corresponding values for `COc1ccc(C(=O)Nc2cccc(C(=O)N/N=C/c3ccc(OC)cc3OC)c2)cc1` are “inactive”, 28.1 µM and 38 µM.

A word on the IC50: it is the concentration that gives 50% inhibition.
